Data set [1] can be described thus: Metabolic stability in mouse liver microsomes (in vitro t1/2). Format: in vitro ADME. The note with it: for half-life at 2 µM: mouse liver microsomes 0.5 mg/mL, 2 μM compound, read-out: Mouse microsome t1/2, min; for Mouse microsome % 60 min: mouse liver microsomes. The method, then:
(§1) The following are assays that may be used to evaluate the metabolic stability of compounds of Formula (I) in human, rat, or mouse microsomes. The assays follow a common procedure recited below. 1. […] Two separated experiments were performed as follows. a) With NADPH: 10 μL of 20 mg/mL liver microsomes and 40 μL of 10 mM NADPH were added to the incubations. […] The final concentration of microsomes was 0.5 mg/mL. 3. The reaction was started with the addition of 4 μL of 200 μM control compound or test compound solutions. Verapamil was used as positive control in this study. The final concentration of test compound or control compound was 2 μM. 4. Aliquots of 50 μL were taken from the reaction solution at 0, 15, 30, 45 and 60 min. […] Samples were centrifuged at 3,220 g for 40 minutes. A 90 μL aliquot of the supernatant was mixed with 90 μL of ultra-pure H2O and then used for LC-MS/MS analysis. 5. Data analysis. All calculations were carried out using Microsoft Excel. Peak areas were determined from extracted ion chromatograms. The slope value, k, was determined by linear regression of the natural logarithm of the remaining percentage of the parent drug vs. incubation time curve. The in vitro half-life (in vitro t1/2) was determined from the slope value: in vitro t1/2=−(0.693)/k.
(In general: Liver microsomes are vesicles of endoplasmic reticulum, rich in cytochrome P450 enzymes.)

Data set [2] is described as follows: Metabolic stability in human liver microsomes (in vitro t1/2). Conditions: for half-life at 2 µM: human liver microsomes 0.5 mg/mL, 2 μM compound, read-out: Human microsome t1/2, min; for Human microsome % 60 min: human liver microsomes. Format: in vitro ADME. As for the experimental part: as §1

As to `COc1cccc(-c2cc(COC(C)(C)C(=O)O)nn2Cc2ccccc2OC)c1` [Example 36, 2-([5-(3-Methoxyphenyl)-1-[(2-methoxyphenyl)methyl]1H-pyrazol-3-yl]methoxy)-2-methylpropanoic acid], in data set [1], the half-life at 2 µM amounted to 20 h and the “Mouse microsome % 60 min” value is recorded as 99%. In data set [2], the half-life at 2 µM is 4.83 h and the “Human microsome % 60 min” value is reported as 85%.

On to `COc1cccc(-c2cc(COC(C)(C)C(=O)O)nn2Cc2ccccc2N(C)C)c1` [Example 38, 2-([1-[(2-(Dimethylamino)phenyl]methyl]-5-(3-methoxyphenyl)1H-pyrazol-3-yl]methoxy)-2-methylpropanoic acid], for which, in data set [1], the half-life at 2 µM came to 1.32 h and the “Mouse microsome % 60 min” value is listed as 61%. In data set [2], the half-life at 2 µM amounted to 1.27 h and the “Human microsome % 60 min” value was determined as 56%.

For `CC(C)(OCc1cc(-c2cccc(OC3CC3)c2)n(Cc2ccccc2Cl)n1)C(=O)O` [Example 39, 2-([1-[(2-Chlorophenyl)methyl]-5-[3-(cyclopropoxy)phenyl]1H-pyrazol-3-yl]methoxy)-2-methylpropanoic acid], in data set [1], the half-life at 2 µM turned out to be 6.17 h and the “Mouse microsome % 60 min” value amounted to 88%. For the same compound, in data set [2], the half-life at 2 µM turned out to be 6.33 h and the “Human microsome % 60 min” value turned out to be 89%.

`COc1cccc(-c2c(C)c(COC(C)(C)C(=O)O)nn2Cc2ccccc2Cl)c1` [Example 54, 2-({1-[(2-Chlorophenyl)methyl]-5-(3-methoxyphenyl)-4-methyl-1H-pyrazol-3-yl)methoxy)-2-methylpropionic acid]: in data set [1], the half-life at 2 µM came out at 12.7 h and the “Mouse microsome % 60 min” value is recorded as 95%. Besides, in data set [2], the half-life at 2 µM worked out at 1.3 h and the “Human microsome % 60 min” value is 59%.

Take `COc1cccc(-c2cc(COC(C)(C)C(=O)O)nn2-c2ccccc2Cl)c1` [Example 57, 2-([1-(2-chlorophenyl)-5-(3-methoxy-phenyl)-1H-pyrazol-3-yl]methoxy)-2-methylpropanoic acid]: in data set [1], the half-life at 2 µM was greater than 33.3 h and the “Mouse microsome % 60 min” value is reported as 100%. In addition, in data set [2], the half-life at 2 µM was determined as 3.17 h and the “Human microsome % 60 min” value is recorded as 80%.

On to `COc1ccc(-c2cc(COC(C)(C)C(=O)O)nn2Cc2ccccc2Cl)s1` [Example 64], for which, in data set [1], the half-life at 2 µM was found to be 4.5 h and the “Mouse microsome % 60 min” value was 84%. Also, in data set [2], the half-life at 2 µM amounted to 3.33 h and the “Human microsome % 60 min” value is listed as 82%.

Consider `COc1csc(-c2cc(COC(C)(C)C(=O)O)nn2Cc2ccccc2Cl)c1` [Example 65, 2-([1-[(2-Chlorophenyl)methyl)-5-(4-methoxythien-2-yl)-1H-pyrazol-3-yl]methoxy)-2-methylpropanoic acid], for which, in data set [1], the half-life at 2 µM was 9.33 h and the “Mouse microsome % 60 min” value amounted to 92%. In data set [2], the half-life at 2 µM is 2.33 h and the “Human microsome % 60 min” value was 78%.

On to `COc1cc(-c2cc(COC(C)(C)C(=O)O)nn2Cc2ccccc2Cl)cs1` [Example 66, 2-([1-[(2-chlorophenyl)methyl]-5-(5-methoxythien-3-yl)-1H-pyrazol-3-yl]-methoxy)-2-methylpropanoic acid], for which, in data set [1], the half-life at 2 µM was found to be 4.33 h and the “Mouse microsome % 60 min” value stood at 83%. Moreover, in data set [2], the half-life at 2 µM was found to be 2 h and the “Human microsome % 60 min” value was determined as 73%.

`CCC(C)(OCc1cc(-c2cccc(OC)c2)n(Cc2ccccc2Cl)n1)C(=O)O` (stereo not drawn) [Example 68, 2-([1-[(2-Chlorophenyl)methyl]-5-(3-methoxyphenyl)-1H-pyrazol-3-yl)methoxy)-2-methylbutanoic acid]: in data set [1], the half-life at 2 µM came out at 6.33 h and the “Mouse microsome % 60 min” value is listed as 91%. In data set [2], the half-life at 2 µM was found to be 13.2 h and the “Human microsome % 60 min” value is given as 95%.
